Patent publication EP0366638A2, “Neuromodulatory peptide” (KabiGen AB, priority 1988, dated 1990)

Legend:
spinal cord = experiment: electrophysiological reflex response in the spinal cord; format: in vivo
Excerpt: The result of these experiments is shown in Fig. 3, from which it is clear that the tripeptide increases both the peak and the duration of the reflex response.

cortical brain slices = experiment: release of acetylcholine from cortical brain slices; format: cell-based; details: following depolarization, Fig. 1
Excerpt: The tripeptide resulting from the manufacture according to Example 1 above was used in a test system according to L. Nilsson, V.R. Sara and A. Nordberg, Neurosience Letters, 1988, Vol. 88, pp 221-226. This test procedure is based on stimulation of the release of acetylcholine from cortical brain slices.

cortical neurones = experiment: modulation of the electrophysiological activity of cortical neurones (microiontophoresis and pressure ejection procedure); details: Fig. 2
Excerpt: The tripeptide from Example 1 above was used in modulation of the electrophysiological activity of cortical neurones, and the results of this experiment is illustrated in Fig. 2. […] In this experiment the procedure according to T.W. Stone (Ed.), "Microiontophonesis and pressure ejection", John Wiley & Sons, New York, 1985 was used.

NCC(=O)N1CCC[C@H]1C(=O)N[C@@H](CCC(=O)O)C(=O)O [tripeptide, glycylprolylglutamic acid]
duration of the reflex response (spinal cord; Fig. 3): increases | peak of the reflex response (spinal cord; Fig. 3): increases | electrophysiological reflex response in the spinal cord (spinal cord; in vivo): facilitate | release of acetylcholine from neurones (cortical brain slices): inhance the release of acetylcholine | neural response to neurotransmitters (cortical neurones; cortical neurones): modulates | cortical neurone activity (cortical neurones; electrophysiological activity): both stimulates and inhibits
